Experimental data from patent US20020106707A1, “Compositions and methods for detecting and quantifying COX-2 activity and anandamide metabolites” (priority 2000, published 2002).
Like-named read-outs stand apart in the source and are kept apart here. Blank lines part the entries; values can stand above or below the compound they belong to.

Tests used:
[1] = rat
COX-2 = target: T1, COX-2 (Mus musculus, UniProt Q05769); conditions: 3 μM inhibitor; RAW264.7 cells activated with LPS (1 μg/mL) and IFN-γ (10 units/mL), AEA 20 μM
T1 sequence (Q05769 18-604): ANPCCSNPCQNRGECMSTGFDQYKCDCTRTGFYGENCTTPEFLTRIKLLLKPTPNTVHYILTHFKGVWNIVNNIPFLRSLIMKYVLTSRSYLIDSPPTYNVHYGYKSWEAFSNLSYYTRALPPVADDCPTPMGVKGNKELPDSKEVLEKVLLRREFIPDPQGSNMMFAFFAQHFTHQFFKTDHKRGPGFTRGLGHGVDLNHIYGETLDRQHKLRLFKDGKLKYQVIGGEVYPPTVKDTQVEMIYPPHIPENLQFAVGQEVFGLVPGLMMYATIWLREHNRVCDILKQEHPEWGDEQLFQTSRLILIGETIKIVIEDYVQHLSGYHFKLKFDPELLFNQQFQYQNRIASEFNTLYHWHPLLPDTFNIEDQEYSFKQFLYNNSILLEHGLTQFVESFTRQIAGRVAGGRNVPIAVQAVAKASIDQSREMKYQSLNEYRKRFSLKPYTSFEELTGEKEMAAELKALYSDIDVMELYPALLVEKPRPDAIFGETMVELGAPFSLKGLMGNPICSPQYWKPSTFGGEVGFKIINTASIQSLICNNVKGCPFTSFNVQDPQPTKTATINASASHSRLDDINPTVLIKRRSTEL

detection at 2 hours post-dosing ([1]; in vivo, iv, 2 mg/kg): routinely detected
Structure (SMILES): CCCCCC(=O)CCC1C(O)CC(=O)C1C/C=C\CCCC(=O)NCCO (centres unmarked) [13,14-dihydro-15-keto-PGE2-EA]

Structure (SMILES): CCCCC[C@H](O)/C=C/[C@H]1[C@H](O)CC(=O)[C@@H]1C/C=C\CCCC(=O)NCCO [PGE2-EA, prostaglandin E2 ethanolamide]
apparent volume of distribution ([1]; 2 mg/kg PGE2-EA IV): 300 to 400 mL | detection at 2 hours post-dosing ([1]; 2 mg/kg PGE2-EA IV, 2 hours post-dosing): routinely detected | calculated plasma half-life ([1]; 2 mg/kg PGE2-EA IV, n=3): 6.33 ± 0.833 min

PGD2-EA biosynthesis (COX-2): inhibited
Structure (SMILES): COc1ccc2c(c1)c(CC(=O)NCCc1ccccc1)c(C)n2C(=O)c1ccc(Cl)cc1 [indomethacin phenethylamide, 2-[1-(4-chlorobenzoyl)-5-methoxy-2-methyl-1H-indol-3-yl]-N-phenethylacetamide]
